{
  "source": "patent US8099262B2",
  "about": "“Estimation of clinical cut-offs” (priority 2004, dated 2012)",
  "key": {"[1]": {"tested_on": "HIV", "assay_type": "in vivo", "parameters": "key to Modelled Lower Cutoff & Confidence Interval / Modelled Upper Cutoff & Confidence Interval: fold change (FC) matching VL drop at 20% and 80% loss of activity", "conditions": "preferred embodiment of linear regression", "text": "In a preferred embodiment of the linear regression model, more factors are included in order to obtain a more refined prediction of viral load response. These factors include for example a sensitivity score per drug class in addition to the overall sensitivity score of the background treatment (cPSS), previous exposure to the drug (naïve (Yes/No), naïve to PIs, naïve to NRTI's, etc. . . . ). Furthermore, in the preferred embodiment, the fold change is transformed before inserting the figures into the model. The transformation to the fold change comprises a power-transformation ranging from FC^−3 to FC^1. In addition, a quadratic term in cPSS is preferably added.\nThe NRTI[naïve] value represents whether the patient is naïve to nucleoside RT inhibitors. If yes, value=1, if no, value=0. The PSS[NRTI} represents the phenotypic sensitivity score for NRTIs, i.e the number of active NRTIs in the background regimen for the patient.\nStage 3: Determine Fold change equivalent to VL drop at 20% and 80% loss of activity by inserting values for VL drop into the above equation and calculating FC. […]"}, "[2]": {"tested_on": "HIV", "conditions": "Definition 3", "description": "This methodology constructs tree-structured rules in order to classify patients as successes (undetectable pathogen load after treatment) and failures. […] Imbalances for such parameters may therefore influence the decision taken for a certain parameter.\nThe classification tree poses queries, in which the answer to each query results in either the left or the right branch of the tree being taken at each stage. […] If yes, the left branch is taken, if no the right branch is taken. As with the methods of the aspects of the invention described previously, the other factors queried include the log baseline pathogen load and the phenotypic sensitivity score. The numbers at the termini of the final branches represent the response rate (1=100% response).\nThe clinical cut-off is chosen as the fold change that makes the difference between the two groups as large as possible.\nIn the classification trees model, tree-structured rules were constructed in order to classify patients in successes (undetectable viral load after treatment) and failures. The same parameters as for the other techniques were considered.\nThis implies that imbalances for other parameters may influence the decision taken for a certain parameter.\nDefinition 3 was a variant of definition 2.\nUsing definition 3, breakpoints determined by classification trees are applicable only to a subset of patients unless fold change is selected at the first tree node."}, "[3]": {"tested_on": "HIV", "assay_type": "in vivo", "parameters": "key to effect range (difference between maximum and minimum effect, log viral load): log viral load drop; max effect (FC 1) minus min effect (plateau); Linear Regression Higher CO / Linear Regression Lower CO: unit not given here", "text": "Databases of studies for patients with tenofovir containing regimens and consisting of patient baseline demographic characteristics, clinical outcome results with viral load and resistance data (Fold change), were retrieved and remapped according to a common structure allowing a meta-analysis. The structure consisted of baseline sequence, viral load data set, viral load measurements and sampling dates (for example viral load within 3 months of starting new regimen and viral load assessment 8 and/or 24 weeks after beginning new regimen), CD4+ data set which contains CD4+ counts and sampling dates, resistance data set containing the fold changes to different antivirals and sampling dates; patient data set with patient information such as age, gender, race, treatment history; treatment data set with drug regimens, start and stop dates, doses, formulations, frequency of intake, regimen changes after resistance tests. The structure of such a clinical data base can be seen in FIG. 1a.\nThe viral load response data includes censored (<400 copies/ml) values. Parameters of the underlying uncensored distribution were estimated by maximum likelihood estimation in SAS (proc lifereg). The viral load response data are corrected for baseline viral load and cPSS.\nThe models applied were linear regression, logistic regression, and a classification tree. These models also took into account effects of the concomitant HIV drugs (PSS), baseline viral load (Baseline Log(V1)i) and, optionally, treatment history in order to avoid bias introduced by imbalances of important characteristics. From the models, a prediction of clinical outcome could be made at different levels of the baseline fold change resistance.\nIn the linear regression model, the proposed equation was the following: LogVL dropi=β0+β1*Baseline Log(V1)i+β2*PSSi+β3*(1/FC)i+ξi where i represented the patient, β0 the intercept, β1, β2 and β3 coefficients indicated the increase in log viral load drop per unit increase of respectively the baseline log VL, the number of sensitive drugs in the background regimen and the inverse of the baseline fold change. ξi was a random error term indicating the deviation of the patient from the value predicted by the model. Interactions between all the factors were evaluated and other baseline characteristics, i.e treatment history, were added if relevant.\nWhen viral load results under the detection limits are obtained, biases could be introduced if the detection limit values are considered when calculating viral load drops and using those in the linear regression model. To avoid this, censoring needed to be taken into account and therefore the PROC LIFEREG facility in the SAS package was employed.\nClinical responses were predicted in the models developed in previous step 2. […] In order to determine the fold changes at which clinically relevant diminished clinical responses can be observed, three definitions of clinical cut-offs were considered:\nThe maximum effect was defined as the treatment effect at fold change 1, and the minimum effect was defined as the treatment effect at a very high fold change (i.e. when the curve reached a plateau). The effect range was then the difference between the maximum effect and the minimum effect."}, "[4]": {"conditions": "Definition 1, Subgroup 2: PSS = 0, baseline Log (VL) = 4"}, "[5]": {"conditions": "Definition 1, Subgroup 3: PSS = 2, baseline Log (VL) = 5"}, "[6]": {"conditions": "Definition 2, Overall (whole population)"}, "[7]": {"conditions": "Definition 2, Subgroup 1: PSS = 2, baseline Log (VL) = 4"}, "[8]": {"conditions": "Definition 2, Subgroup 2: PSS = 0, baseline Log (VL) = 4"}, "[9]": {"conditions": "Definition 2, Subgroup 3: PSS = 2, baseline Log (VL) = 5"}, "[10]": {"conditions": "Definition 2, two active drugs besides the drug, baseline Log(VL) of 4"}, "[11]": {"conditions": "Definition 3, Subgroup 1: PSS = 2, baseline Log (VL) = 4"}, "[12]": {"conditions": "Definition 3, Subgroup 2: PSS = 0, baseline Log (VL) = 4"}, "[13]": {"conditions": "Definition 3, Subgroup 3: PSS = 2, baseline Log (VL) = 5"}, "[14]": {"conditions": "preliminary linear regression analysis, virologic response at 8 weeks"}},
  "note": "“Also recorded” adds a separate entry of the source. Like-named read-outs stand apart in the source and are kept apart here.",
  "data": [
    {"smiles": "CC(C)OC(=O)OCOP(=O)(CO[C@H](C)Cn1cnc2c(N)ncnc21)OCOC(=O)OC(C)C.O=C(O)/C=C/C(=O)O", "note": "[TDF]", "values": [
      {"measurement": "Modelled Lower Cutoff & Confidence Interval", "setting": "[1]", "result": 1.0},
      {"measurement": "Modelled Upper Cutoff & Confidence Interval", "setting": "[1]", "result": 2.0},
      {"measurement": "Classification Tree Lower CO", "setting": "[2]; Overall", "result": 1.15},
      {"measurement": "Classification Tree Lower CO", "setting": "[2]; Subgroup 1: PSS = 2, baseline Log (VL) = 4", "result": 1.15},
      {"measurement": "Classification Tree Lower CO", "setting": "[2]; Subgroup 2: PSS = 0, baseline Log (VL) = 4", "result": 1.15},
      {"measurement": "Classification Tree Lower CO", "setting": "[2]; Subgroup 3: PSS = 2, baseline Log (VL) = 5", "result": 1.15},
      {"measurement": "Linear Regression Lower CO (clinical cut-off, fold change)", "setting": "[3]; Definition 1, Subgroup 1: PSS = 2, baseline Log (VL) = 4", "result": 3.73},
      {"measurement": "Linear Regression Higher CO (clinical cut-off, fold change)", "setting": "[3]; Definition 1, Subgroup 1: PSS = 2, baseline Log (VL) = 4, listed as Tenofovir", "result": ">assay"},
      {"measurement": "Linear Regression Higher CO (clinical cut-off, fold change)", "setting": "[3]; Definition 1, Subgroup 1: PSS = 2, baseline Log (VL) = 4, listed as tenofovir", "result": "No higher cut-off could be derived; also recorded: >assay"},
      {"measurement": "Linear Regression Higher CO", "setting": "[3]; [4]", "result": 3.8},
      {"measurement": "Linear Regression Lower CO", "setting": "[3]; [4]", "result": 1.68},
      {"measurement": "Linear Regression Higher CO", "setting": "[3]; [5]", "result": ">assay"},
      {"measurement": "Linear Regression Lower CO", "setting": "[3]; [5]", "result": ">assay"},
      {"measurement": "Linear Regression Higher CO", "setting": "[3]; [6]", "result": 5},
      {"measurement": "Linear Regression Lower CO", "setting": "[3]; [6]", "result": 1.25},
      {"measurement": "Linear Regression Higher CO", "setting": "[3]; [7]", "result": 5},
      {"measurement": "Linear Regression Lower CO", "setting": "[3]; [7]", "result": 1.25},
      {"measurement": "Linear Regression Higher CO", "setting": "[3]; [8]", "result": 5},
      {"measurement": "Linear Regression Lower CO", "setting": "[3]; [8]", "result": 1.25},
      {"measurement": "Linear Regression Higher CO", "setting": "[3]; [9]", "result": 5},
      {"measurement": "Linear Regression Lower CO", "setting": "[3]; [9]", "result": 1.25},
      {"measurement": "drop in log viral load at fold change 1", "setting": "[3]; [10]", "result": "−1.48"},
      {"measurement": "drop in log viral load at the maximum (asymptotic) fold change", "setting": "[3]; [10]", "result": "−0.28"},
      {"measurement": "effect range (difference between maximum and minimum effect, log viral load)", "setting": "[3]; [10]", "result": 1.2},
      {"measurement": "Linear Regression Higher CO", "setting": "[3]; Definition 3, Overall", "result": 5},
      {"measurement": "Linear Regression Lower CO", "setting": "[3]; Definition 3, Overall", "result": 1.1},
      {"measurement": "Linear Regression Higher CO", "setting": "[3]; [11]", "result": 5},
      {"measurement": "Linear Regression Lower CO", "setting": "[3]; [11]", "result": 1.1},
      {"measurement": "Linear Regression Higher CO", "setting": "[3]; [12]", "result": 5},
      {"measurement": "Linear Regression Lower CO", "setting": "[3]; [12]", "result": 1.1},
      {"measurement": "Linear Regression Higher CO", "setting": "[3]; [13]", "result": 5},
      {"measurement": "Linear Regression Lower CO", "setting": "[3]; [13]", "result": 1.1},
      {"measurement": "VIROLOGIC RESPONSE Baseline FC for 80% REDUCTION of response (upper cutoff)", "setting": "[3]; preliminary linear regression analysis, definition 2", "result": 2.5},
      {"measurement": "VIROLOGIC RESPONSE 20% REDUCTION (fold change, preliminary VirtualPhenotype Clinical Cutoff)", "setting": "[3]; [14]", "result": 1.2},
      {"measurement": "VIROLOGIC RESPONSE 80% REDUCTION (fold change, preliminary VirtualPhenotype Clinical Cutoff)", "setting": "[3]; [14]", "result": 2.5},
      {"measurement": "lower cut-off derived from the Table", "setting": "[3]; summary over models, 2 active drugs besides the drug, baseline log(VL) of 4", "result": 1.2}
    ]}
  ]
}
